According to US6617350B2, “Inhibitors of aspartyl protease” (priority 1999, dated 2003):
Read-outs that look alike come from different tables or passages of the source.

Key:
[1] = molecular target: HIV-1 protease (Human immunodeficiency virus type 1 group M subtype B, UniProt P04585); assay: biochemical
[2] = system: HIV-1 (strain IIIB); assay: microbe, parasite or virus in culture; type: cell-based; settings: Human immunodeficiency virus 1, IIIB
[3] = Table 12, HIV-1 protease, read-out: Ki
[4] = MT4, Table 12, anti-viral potency in MT-4 cells, read-out: IC50
[5] = MT4, antiviral assay, MT4 cells infected with HIV-1 (strain IIIB), class symbol, read-out: IC50 (activity range)
[6] = MT4, Table 13, MT-4 cell based assay, class symbol, read-out: IC50

| Structure (SMILES) | Ki [1, 3] | IC50 [2, 5] | other results |
| --- | --- | --- | --- |
| CCC(CCC1(C)OCCO1)CN(C[C@@H](O)[C@H](Cc1ccccc1)NC(=O)OC(C)(C)C)S(=O)(=O)c1ccc(OC)cc1 (mixture of isomers) [Compound 202, tert-ButylN-((1S,2R)-1-benzyl-3-[2-ethyl-4-(2-methyl-1,3-dioxolan-2-yl)butyl][(4-methoxyphenyl)sulfonyl]amino-2-hydroxypropyl)carbamate] | 1 to 10 nM | – | IC50 [2, 4]: > 1000 nM |
| CCOC(=O)CNC(=O)NCCCC(C)(C)CN(CC(O)C(Cc1ccccc1)NC(=O)OC1COC2OCCC12)S(=O)(=O)c1ccc(OC)cc1 (mixture of isomers) [Compound 216, Ethyl (3S,4R)-1-[(3R,3aS,6aR)hexahydrofuro[2,3-b]furan-3-yloxy]-3-benzyl-4-hydroxy-6-[(4-methoxyphenyl)sulfonyl]-8,8-dimethyl-1,13-dioxo-2,6,12,14-tetraazahexadecan-16-oate and Ethyl (3S,4R)-1-[(3S,3aR,6aS)hexahydrofuro[2,3-b]furan-3-yloxy]-3-benzyl-4-hydroxy-6-[(4-methoxyphenyl)sulfonyl]-8,8-dimethyl-1,13-dioxo-2,6,12,14-tetraazahexadecan-16-oate] | < 1 nM | – | IC50 [2, 4]: ≤ 100 nM |
| COc1ccc(S(=O)(=O)N(CC(C)CCC#N)CC(O)C(Cc2ccccc2)NC(=O)OC(C)(C)C)cc1 [Compound 2, ter-Butyl N-((1S,2R)-1-benzyl-3-[(2RS)-(4-cyano-2-methylbutyl)][(4-methoxyphenyl)sulfonyl]amino-2-hydroxypropyl)carbamate] | < 1 nM | – | IC50 [2, 4]: > 1000 nM |
| CC(C)(CCC#N)CN(C[C@@H](O)[C@H](Cc1ccccc1)NC(=O)OC(C)(C)C)S(=O)(=O)c1cccc(N)c1 [Compound 5, tert-ButylN-((1S,2R)-3-[(3-aminophenyl)sulfonyl](4-cyano-2,2-dimethylbutyl)amino-1-benzyl-2-hydroxypropyl)carbamate] | < 1 nM | – | IC50 [2, 4]: > 1000 nM |
| CC(C)(CCC#N)CN(C[C@@H](O)[C@H](Cc1ccccc1)NC(=O)OC(C)(C)C)S(=O)(=O)c1ccc2c(c1)OCO2 [Compound 6, {(1S,2R)-3-[(Benzo[1,3]dioxole-5-sulfonyl)-(4-cyano-2,2-dimethyl-butyl)-amino]-1-benzyl-2-hydroxy-propyl}-carbamic acid tert-butyl ester] | < 1 nM | – | – |
| COc1ccc(S(=O)(=O)N(CC(C)CCC#N)CC(O)C(Cc2ccccc2)NC(=O)OC2CCOC2)cc1 [Compound 8, (3S)-Tetrahydro-3-furanyl N-((1S,2R)-1-benzyl-3-[(2RS)-4-cyano-2-methyl][(4-methoxyphenyl)sulfonyl]amino-2-hydroxypropyl)carbamate] | < 1 nM | – | IC50 [2, 4]: ≤ 100 nM |
| CCNc1cccc(S(=O)(=O)N(CC(O)C(Cc2ccccc2)NC(=O)OC2COC3OCCC23)CC(C)(C)CCC#N)c1 [Compound 44, {(1S,2R)-3-[(3-N-ethylaminophenyl)sulfonyl]-(4-cyano-2,2-dimethyl-butyl)-amino]-1-benzyl-2-hydroxy-propyl}carbamic acid (3R,3aS,6aR)hexahydro-furo[2,3-b]furan-3-yl ester] | < 1 nM | – | – |
| COc1ccc(S(=O)(=O)N(CCC#N)C[C@@H](O)[C@H](Cc2ccccc2)NC(=O)OC(C)(C)C)cc1 [Compound 123] | 10 to 100 nM | – | – |
| CC(C)(C)OC(=O)N[C@@H](Cc1ccccc1)[C@H](O)CN(CCC#N)S(=O)(=O)c1cccc(N)c1 [Compound 127] | 10 to 100 nM | – | – |
| COc1ccc(S(=O)(=O)N(CC(O)[C@H](Cc2ccccc2)NC(=O)OC(C)(C)C)CC(C)(C)CCOC(N)=O)cc1 (stereo partly drawn) [Compound 234, ter-Butyl N-((1S,2R)-1-benzyl-3-(4-carbamoyloxy-2,2-dimethylbutyl)[(4-methoxyphenyl)sulfonyl]amino-2-hydroxypropyl)carbamate] | < 1 nM | – | – |
| COc1ccc(S(=O)(=O)N(CCC(C)CCC=O)C[C@@H](O)[C@H](Cc2ccccc2)NC(=O)OC(C)(C)C)cc1 (stereo partly drawn) [Compound 277] | 1 to 10 nM | – | – |
| CC(CCC=O)CCN(C[C@@H](O)[C@H](Cc1ccccc1)NC(=O)OC(C)(C)C)S(=O)(=O)c1ccc2c(c1)OCO2 (stereo partly drawn) [Compound 278] | 1 to 10 nM | – | – |
| COc1ccc(S(=O)(=O)N(CCC(C)=O)C[C@@H](O)[C@H](Cc2ccccc2)NC(=O)OC(C)(C)C)cc1 [Compound 279] | 10 to 100 nM | – | – |
| CC(C)(CCCCN)CN(C[C@@H](O)[C@H](Cc1ccccc1)NC(=O)O[C@H]1CCOC1)S(=O)(=O)c1ccc2c(c1)OCO2 [Compound 295, (3S)-tetrahydro-3-furanyl N-(1S,2R)-3-[(1,3-benzodioxol-5-ylsulfonyl)(6-amino-2,2-dimethylhexyl)amino]-1-benzyl-2-hydroxypropylcarbamate] | – | 100 to 500 nM | – |
| CC(C)(CCCCN)CN(CC(O)[C@H](Cc1ccccc1)NC(=O)OC1CCOC1)S(=O)(=O)c1ccc(N)cc1 (stereo partly drawn) [Compound 296, (3S)-tetrahydro-3-furanyl N-(1S,2R)-3-[(4-aminophenylsulfonyl)(6-amino-2,2-dimethylhexyl)amino]-1-benzyl-2-hydroxypropylcarbamate] | – | 100 to 500 nM | – |
| CC(C)(CCCCN)CN(CC(O)[C@H](Cc1ccccc1)NC(=O)OC1COCOC1)S(=O)(=O)c1ccc2c(c1)OCO2 (stereo partly drawn) [Compound 297, [1,3]-dioxan-5-yl N-(1S,2R)-3-[(1,3-benzodioxol-5-ylsulfonyl)(6-amino-2,2-dimethylhexyl)amino]-1-benzyl-2-hydroxypropylcarbamate] | – | 100 to 500 nM | – |
| CC(C)(CCNC(=O)C(C)(C)C)CN(C[C@@H](O)[C@H](Cc1ccccc1)NC(=O)O[C@H]1CO[C@H]2OCC[C@H]21)S(=O)(=O)c1ccc2c(c1)OCO2 [Compound 374] | – | – | IC50 [2, 6]: 1 to 10 nM |
| CC(C)(CCNC(=O)C1CCC1)CN(C[C@@H](O)[C@H](Cc1ccccc1)NC(=O)O[C@H]1CO[C@H]2OCC[C@H]21)S(=O)(=O)c1ccc2c(c1)OCO2 [Compound 375] | – | – | IC50 [2, 6]: 1 to 10 nM |

| Structure (SMILES) | Ki [1, 3] | IC50 [2, 5] | other results |
| --- | --- | --- | --- |
| CC(C)CC(=O)NCCC(C)(C)CN(C[C@@H](O)[C@H](Cc1ccccc1)NC(=O)O[C@H]1CO[C@H]2OCC[C@H]21)S(=O)(=O)c1ccc2c(c1)OCO2 [Compound 376] | – | – | IC50 [2, 6]: 1 to 10 nM |
| CC(C)(CCNC(=O)c1ccccc1)CN(C[C@@H](O)[C@H](Cc1ccccc1)NC(=O)O[C@H]1CO[C@H]2OCC[C@H]21)S(=O)(=O)c1ccc2c(c1)OCO2 [Compound 377] | – | – | IC50 [2, 6]: 1 to 10 nM |
| CC(C)(CCNC(=O)c1ccco1)CN(C[C@@H](O)[C@H](Cc1ccccc1)NC(=O)O[C@H]1CO[C@H]2OCC[C@H]21)S(=O)(=O)c1ccc2c(c1)OCO2 [Compound 378] | – | – | IC50 [2, 6]: 1 to 10 nM |
| CC(C)(CCNC(=O)c1cccs1)CN(C[C@@H](O)[C@H](Cc1ccccc1)NC(=O)O[C@H]1CO[C@H]2OCC[C@H]21)S(=O)(=O)c1ccc2c(c1)OCO2 [Compound 379] | – | – | IC50 [2, 6]: 1 to 10 nM |
| CC(C)(CCNC(=O)CCC1CCCC1)CN(C[C@@H](O)[C@H](Cc1ccccc1)NC(=O)O[C@H]1CO[C@H]2OCC[C@H]21)S(=O)(=O)c1ccc2c(c1)OCO2 [Compound 402] | – | 100 to 500 nM | – |
| CC(C)(CCNC(=O)CN)CN(CC(O)C(Cc1ccccc1)NC(=O)OC1COC2OCCC12)S(=O)(=O)c1ccc2c(c1)OCO2 [Compound 520, (3R,3aS,6aR)hexahydrofuro[2,3-b]furan-3-yl N-(1S,2R)-3-[(4-[(amino)acetylamino]-2,2-dimethylbutyl)(1,3-benzodioxol-5-ylsulfonyl)amino]-1-benzyl-2-hydroxypropylcarbamate] | – | 100 to 500 nM | – |
| CC(=O)NCC(=O)NCCC(C)(C)CN(CC(O)C(Cc1ccccc1)NC(=O)OC1COC2OCCC12)S(=O)(=O)c1ccc2c(c1)OCO2 (stereo not drawn) [Compound 523] | – | 100 to 500 nM | – |
| CN(C)C(=O)NCC(=O)NCCC(C)(C)CN(CC(O)C(Cc1ccccc1)NC(=O)OC1COC2OCCC12)S(=O)(=O)c1ccc2c(c1)OCO2 (stereo not drawn) [Compound 526] | – | 100 to 500 nM | – |
| COCC(=O)NCC(=O)NCCC(C)(C)CN(CC(O)C(Cc1ccccc1)NC(=O)OC1COC2OCCC12)S(=O)(=O)c1ccc2c(c1)OCO2 (stereo not drawn) [Compound 527] | – | 100 to 500 nM | – |
| CC(C)(CCNC(=O)CNS(C)(=O)=O)CN(CC(O)C(Cc1ccccc1)NC(=O)OC1COC2OCCC12)S(=O)(=O)c1ccc2c(c1)OCO2 (stereo not drawn) [Compound 528] | – | 100 to 500 nM | – |
| CNC(=O)NCC(=O)NCCC(C)(C)CN(CC(O)C(Cc1ccccc1)NC(=O)OC1COC2OCCC12)S(=O)(=O)c1ccc2c(c1)OCO2 (stereo not drawn) [Compound 529] | – | – | Ki [1]: < 1 nM |
| CNC(=O)NCC(=O)NCCCC(C)(C)CN(CC(O)C(Cc1ccccc1)NC(=O)OC1COC2OCCC12)S(=O)(=O)c1ccc2c(c1)OCO2 (stereo not drawn) [Compound 536] | – | – | Ki [1]: < 1 nM |
| CN(C)C(=O)NCC(=O)NCCCCC(C)(C)CN(CC(O)C(Cc1ccccc1)NC(=O)OC1COC2OCCC12)S(=O)(=O)c1ccc2c(c1)OCO2 (stereo not drawn) [Compound 540] | – | 100 to 500 nM | – |
| CC(C)(CCCCNC(=O)CNS(C)(=O)=O)CN(CC(O)C(Cc1ccccc1)NC(=O)OC1COC2OCCC12)S(=O)(=O)c1ccc2c(c1)OCO2 (stereo not drawn) [Compound 542] | – | 100 to 500 nM | – |
| CNC(=O)NCC(=O)NCCCCC(C)(C)CN(CC(O)C(Cc1ccccc1)NC(=O)OC1COC2OCCC12)S(=O)(=O)c1ccc2c(c1)OCO2 (stereo not drawn) [Compound 543] | – | – | Ki [1]: < 1 nM |
| CN(C)C(=NC#N)NCCC(C)(C)CN(CC(O)C(Cc1ccccc1)NC(=O)OC1COC2OCCC12)S(=O)(=O)c1ccc2c(c1)OCO2 (stereo not drawn) [Compound 563] | – | 100 to 500 nM | – |
| CC(C)(CCOC(=O)NO)CN(CC(O)C(Cc1ccccc1)NC(=O)OC1COC2OCCC12)S(=O)(=O)c1ccc2c(c1)OCO2 (stereo not drawn) [Compound 605] | – | 100 to 500 nM | – |
| CC(C)CN(CC(O)C(Cc1ccccc1)NC(=O)OC1CCOC1)S(=O)(=O)c1ccc(N)cc1 [Compound A, 4-amino-N-((2 syn, 3S)-2-hydroxy-4-phenyl-3-((S)-tetrahydrofuran-3-yloxycarbonylamino)-butyl)-N-isobutyl-benzenesulfonamide, reference compound] | – | – | IC50 ([2]; MT4, MT-4 cells, comparison compound, read-out: IC50 in the MT-4 cell based assay): 80 nM; IC50 ([2]; MT4, Table 13, MT-4 cell based assay, numeric value, comparison compound, read-out: IC50): 80 nM |
